Results published in US5216162A, “Substituted pyrrolo[3,2-c]quinolines” (American Home Products Corporation, priority 1992, dated 1993).

System: IL-1-induced release of neutral protease from rabbit articular chondrocytes
Experiment: Inhibition of IL-1-induced release of neutral protease from rabbit articular chondrocytes (azocoll neutral protease assay)
Format: cell-based, rabbit (male New Zealand white)
Settings: Oryctolagus cuniculus, Chondrocyte, purified human IL-1 stimulation
Experimental: The ability of the compounds of the inventions to inhibit interleukin 1 is measured by the ability of the test compounds to inhibit the IL-1-induced release of neutral protease from rabbit articular chondrocytes.
This assay is carried out as follows:
Isolation of rabbit chondrocytes
Male New Zealand white rabbits are anesthetized with 50 mg/kg of ketamine (i.m.) and killed by an intracardiac injection of 3 mls of Nembutal. The knee joints of both legs are resected and the articular surfaces are exposed. Cartilage slices are obtained using a scalpel and are placed in a tissue culture dish (100 mm diameter) containing 10 mls of Hank's balanced salt solution (HBSS). The chondrocytes within the cartilage slices are then liberated by a series of enzyme digestions. The slices are incubated for 10 minutes at 37° C. in 0.05% hyaluronidase (Sigma H-3884), rinsed with HBSS and incubated with 0.2% trypsin (Sigma T-2395) for 10 minutes at 37° C. The slices are rinsed again and incubated for 10 minutes at 37° C. with 1.2% collagenase (Sigma C-5138). The slices are then rinsed again with HBSS and resuspended in 10 ml of Ham's F-12 medium containing 10% fetal bovine calf serum (FCS) and 0.2% collagenase and incubated overnight at 37° C. in a 5% CO2 incubator. The next day, the medium containing the digested cartilage fragments and liberated chondrocytes is transferred to a 15 ml centrifuge tube and the cells are collected by centrifugation and washed twice and resuspended in Ham's F-12 medium. The cells are then plated into 24-well tissue culture plates (2×10^ 5 cells/well) and incubated at […] until confluent (usually 4-6 days).
Stimulation of chondrocytes and drug treatment
The confluent chondrocytes are rinsed twice with serum-free Ham's F-12 medium and 1 ml is added to each well. Fifty μl of purified human IL-1 (100 Units/ml; Genzyme Corporation, Boston, MA) is then added to stimulate these cells to secrete neutral protease. To measure drug effects, the cells are treated with test compound 10 minutes prior to addition of IL-1. The standard screening dose is 10 μM. Twenty-four hours after IL-1 stimulation, supernatant fluids are collected and assayed for neutral protease activity.
The neutral protease activity of chondrocyte supernatant fluids is determined by their ability to degrade an insoluble protease substrate, azocoll (Sigma). Supernatants are treated for 10 minutes at room temperature with 350 μM p-aminophenylmurcuric acetate to activate the latent enzyme. Three hundred of μl of supernatant is then mixed with 500 μl of a 20 mg/ml suspension of azocoll and incubated at 37° C. for 18-24 hours with gentle rocking. The mixtures are centrifuged and the amount of substrate hydrolyzed is determined by measuring the absorbance of the supernatant at 520 nm.
Drug effects are calculated as the % change in enzyme activity (absorbance)by supernatants from drug-treated chondrocytes relative to enzyme activity of supernatants from vehicle-treated chondrocytes as follows: [formula]
Where tested in this assay, the compounds of the invention gave the following results: […]

[1] = test compound 10 min before IL-1, 24 h, read-out: % Inhibition (I.S.D.)

SMILES | inhibition at 10 µM [1] [%] | inhibition at 0.1 µM (dose 0.1 μM, test compound 10 min before IL-1, 24 h, read-out: % Inhibition (I.S.D.)) [%] | inhibition at 1 µM (dose 1 μM, test compound 10 min before IL-1, 24 h, read-out: % Inhibition (I.S.D.)) [%] | IC50 (24 h, doses 10, 1 and 0.1 μM) [nM]
N#Cc1ccc(NCCc2[nH]c3c(cnc4cc(Cl)ccc43)c2C=O)cc1 [Example 1, 4-[[2-(7-Chloro-3-formyl-1H-pyrrolo[3,2-c]-quinolin-2-yl)ethyl]amino]benzonitrile] | 21 |  |  | 
CCOC(=O)c1ccc(NCCc2[nH]c3c(cnc4cc(Cl)ccc43)c2C=O)cc1 [Example 2, 4-[[2-(7-Chloro-3-formyl-1H-pyrrolo[3,2-c]quinolin-2-yl)ethyl]amino]benzoicacid ethyl ester] | 50 |  |  | 
CS(=O)(=O)c1ccc(NCCc2[nH]c3c(cnc4cc(Cl)ccc43)c2C=NNc2ccccc2)cc1 [Example 6, 7-Chloro-2-[2-[[4-(methylsulfonyl)phenyl]amino]ethyl]-1H-pyrrolo[3,2-c]quinoline-3-carboxaldehyde phenylhydrazone] | 80 | 14 | 23 | 2900
CCOC(=O)c1ccc(NCCc2[nH]c3c(cnc4cc(Cl)ccc43)c2C=NNc2ccccc2)cc1 [Example 5, 4-[[2-[7-Chloro-3-[(phenylhydrazono)methyl]-1H-pyrrolo[3,2-c]quinolin-2-yl]ethyl]amino]benzoic acid ethyl ester] | 54 |  |  | 
N#Cc1ccc(NCCc2[nH]c3c(cnc4cc(Cl)ccc43)c2C=NNc2ccccc2)cc1 [Example 4, 4-[[2-[7-Chloro-3-[(phenylhydrazono)methyl]-1H-pyrrolo[3,2-c]quinolin-2-yl]ethyl]amino]benzonitrile] | 52 |  |  | 
CS(=O)(=O)c1ccc(NCCc2[nH]c3c(cnc4cc(Cl)ccc43)c2C=O)cc1 [Example 3, 7-Chloro-2-[2-[[4-(methylsulfonyl)phenyl]amino]ethyl]-1H-pyrrolo[3,2-c]quinoline-3-carboxaldehyde] | 28 |  |  | 
